In patent EP0144519A1, “2',4'-Difluoro-4-hydroxy-(1,1'-diphenyl)-3-carboxylic derivatives of N-acetylcysteine and of S-carboxymethylcysteine having anti-inflammatory and mucolytic activity, process for their preparation and related pharmaceutical compositions” (priority 1983, dated 1985):
Where a name gives a salt, the structure may show the parent alone.

Assays:
[1] = system: phenylquinone induced writhing; experiment: phenylquinone induced writhing in the mouse (analgesic activity); type: in vivo; settings: 10 animals
Text: (§1) The pharmaco-toxicological properties of the compounds '1 have been studied in comparison with diflunisal and with N-acetylcysteine, in order to evaluate the pharmacological and toxicological properties of the compounds of the invention with respect to those of the starting compounds. The results relating to the compound 5 (see scheme I) are hereinafter reported, only for illustrative and not for limiting purpose.

[2] = system: carrageen induced paw oedema; experiment: carrageen induced paw oedema in the rat (anti-inflammatory activity); type: in vivo; settings: administered 1h before the carrageen, 10 animals
Text: as §1

[3] = plasma levels of diflunisal after oral administration in the rat (pharmacokinetics); type: in vivo; settings: 40 umol/kg, oral dose 0.04 mmol/kg
Text: Lastly, some pharmacokinetic properties of the compound 5 have been investigated, by measuring the plasma levels of diflunisal after oral administration of 0.04 mmol/kg p.o. in the rat, this dose being close to the therapeutical one. [table]

ulcers = experiment: gastrolesivity, ulcers after oral administration in the rat; type: in vivo; settings: equimolar doses
Text: (§2) Other toxicological features of the compound 5 have been also studied, more particularly the histolesivity (intramuscular injection in the sacrospinalis muscle of rabbit) and the gastrolesivity (ulcers after oral administration in the rat).

sacrospinalis muscle = experiment: histolesivity, intramuscular injection in the sacrospinalis muscle of rabbit; type: in vivo; settings: equimolar doses
Text: as §2

[4] = water solubility (observation at preparation); type: physicochemical
Description: 3.95 g of S-[2',4'-difluoro-4-hydroxy-(1,1'-diphenyl)-3-carbonyl]-N-acetyl-L-cysteine (5) are added with 2.92 g of lysine base as a 50% aqueous solution, 8 ml of water and 20 ml of acetone; the mixture is stirred until a clear solution is obtained and filtered. Under stirring the mixture is diluted up to 100 ml with acetone, cooled to -10°C for a night, filtered and dried in a stove at 50-60°C under vacuum. A white, water soluble product is obtained having melting point of 179-184°C, with a yield of 92%.

Structure (SMILES)	INIBITION % (medium value ± s.e.) analgesic activity (b) ([1]; 0.040 mmol kg^-1 p.o.) [%]	INIBITION % (medium value ± s.e.) analgesic activity (b) ([1]; 0.120 mmol kg^-1 p.o.) [%]	INIBITION % (medium value ± s.e.) analgesic activity (b) ([1]; 0.400 mmol kg^-1 p.o.) [%]	INIBITION % (medium value ± s.e.) anti-inflammatory activity (a) ([2]; 0.040 mmol kg^-1 p.o.) [%]	INIBITION % (medium value ± s.e.) anti-inflammatory activity (a) ([2]; 0.120 mmol kg^-1 p.o.) [%]	INIBITION % (medium value ± s.e.) anti-inflammatory activity (a) ([2]; 0.400 mmol kg^-1 p.o.) [%]	Cmax [3] [ng/mL]	AUC(0-inf) ([3]; read-out: o → oo) [µg·h/mL]	Tmax ([3]; read-out: tC max) [h]	half-life ([3]; read-out: t½ (converted)) [h]	gastrolesivity (ulcers)	histolesivity (sacrospinalis muscle)	solubility in water [4]
O=C(O)c1cc(-c2ccc(F)cc2F)ccc1O [Diflunisal, 2',4'-difluoro-4-hydroxy-(1,1'-diphenyl)-3-carboxylic acid]	9.5 ± 6.2	16.6 ± 15.9	39.6 ± 9.8	29.6 ± 5.4	50.3 ± 2.0	53.9 ± 4.7	39700	345	3	4.2	high	high	
CC(=O)N[C@@H](CSC(=O)c1cc(-c2ccc(F)cc2F)ccc1O)C(=O)O [Example 8, S-/ 2',4'-difluoro-4-hydroxy-(1,1'-diphenyl)-3-carbonyl]-N-acetyl-L-cysteine lysine salt]													water soluble
